Experimental data from patent US9144570B2, “Method to enhance delivery of glutathione and ATP levels in cells” (Max International LLC, priority 2004, dated 2015).
“Also recorded” adds a separate entry of the source.

Tests used:
mice [1] = settings: cited from earlier work
Rat hepatocytes [2] = experiment: Inhibitory effect of BSO on GSH elevation elicited by L-cysteine prodrugs in rat hepatocytes; format: cell-based
Method: (§1) Rat hepatocytes were isolated following the methods of P. O. Seglen, Exper. Cell Res., 74, 450 (1972). After final plating, the hepatocytes were maintained in culture for 24 hr prior to use. Only primary cultures were used throughout the studies. […] Total GSH content (GSH+GSSG) was determined by a modification of the DTNB [5,5′-dithiobis(2-nitrobenzoic acid)] glutathione reductase recycling method of F. Tietze, Anal. Biochem., 27, 502 (1969). The GSH concentration in the sample was quantified by determining the cycling rate (ΔOD at 412 nm/min) of the sample.

Rat hepatocytes [3] = experiment: Glutathione content of isolated rat hepatocytes after incubation with L-cysteine prodrugs; format: cell-based; settings: for [GSH] Rel. to Controls. / [GSH] ± SE: 4-hr incubation, RibCys 1.0 mM, NAC 2.5 mM; for [GSH] ± SE: total GSH (GSH+GSSG)
Method: as §1

mice [4] = settings: RibCys 8 mmol/kg; cited from earlier work
tumor-bearing CDF1 mice = settings: 8 mmol/kg i.p., cited from earlier work
mice [5] = settings: RibCys; 1 g/kg in mice; cited from earlier work
canine heart = settings: cited from earlier work
human subjects = settings: administered directly to human subjects, wide dosage ranges; cited from earlier work
healthy human subjects = settings: oral, 8-10 g per day, adult; cited from earlier work
[6] = prodrug 1.0 mM, cells pre-exposed to BSO 0.2 mM

## CC1N[C@H](C(=O)O)CS1 (stereo partly drawn) [2(R,S)-methyl-thiazolidine-4R-carboxylate]
Mice [1]
  protection of mice from hepatotoxic dosages of acetaminophen: protect mice from heptatotoxic dosages of acetaminophen

## CCCCCC1N[C@H](C(=O)O)CS1 (stereo partly drawn) [2(R,S)-n-pentyl-thiazolidine-4R-carboxylate]
Mice [1]
  protection of mice from hepatotoxic dosages of acetaminophen: protect mice from heptatotoxic dosages of acetaminophen

## CCCC1N[C@H](C(=O)O)CS1 (stereo partly drawn) [2(R,S)-n-propyl-thiazolidine-4R-carboxylate]
Mice [1]
  protection of mice from hepatotoxic dosages of acetaminophen: protect mice from heptatotoxic dosages of acetaminophen

## CCCCS(=N)(=O)CCC(N)C(=O)O (stereo not drawn) [BSO, Buthionine Sulfoximine]
Rat hepatocytes [2]; BSO 0.2 mM alone, no prodrug
  [GSH] Rel. to Controls.: 0.5
  [GSH] ± SE: 18.4 ± 2.08 nmol/10^6 cells

## O=C1N[C@H](C(=O)O)CS1 [L-2-oxothiazolidine-4-carboxylate]
Mice [1]
  protection of mice from hepatotoxic dosages of acetaminophen: protect mice from heptatotoxic dosages of acetaminophen

## CC(=O)N[C@@H](CS)C(=O)O [N-Acetyl-L-cysteine (NAC), N-Acetyl-L-cysteine]
Rat hepatocytes [2]; [6]
  [GSH] Rel. to Controls.: 0.7
  [GSH] ± SE: 25.5 ± 1.59 nmol/10^6 cells
Mice [1]
  protection of mice from hepatotoxic dosages of acetaminophen: protect mice from heptatotoxic dosages of acetaminophen
Rat hepatocytes [3]
  [GSH] Rel. to Controls.: 1.3
  [GSH] ± SE: 45.8 ± 1.27 nmol/10^6 cells
Rat hepatocytes [3]; NAC, 2.5 times the concentration of the thiazolidine prodrugs
  GSH levels raised by: 30%

## O=C(O)[C@@H]1CSC(C(O)C(O)C(O)CO)N1 (stereo partly drawn) [RibCys, 2(R,S)-D-ribo-1′,2′,3′,4′-Tetrahydroxybutylthiazolidine-4(R)-carboxylic Acid]
Rat hepatocytes [2]; [6]
  [GSH] Rel. to Controls.: 0.5
  [GSH] ± SE: 16.2 ± 3.60 nmol/10^6 cells
Mice [4]
  protection of mice exposed to cyclophosphamide: deliver effective protective amounts of cysteine to mice exposed to cyclophosphamide
Mice [1]; RibCys, 2 g/kg in mice
  protection against acetaminophen hepatic and renal toxicity: effective to protect against acetaminophen-induced hepatic and renal toxicity; also recorded: protect mice against acetaminophen hepatic and renal toxicity
tumor-bearing CDF1 mice; 16-h time point
  GSH in the liver compared to untreated controls: 1.5 fold
tumor-bearing CDF1 mice; maximal GSH content
  GSH in bladder relative to controls: 2.1 fold
  GSH in muscle relative to control animals: 2.5 times
tumor-bearing CDF1 mice; maximal at 16 h
  Kidney GSH relative to control values: 1.6 times control values
tumor-bearing CDF1 mice
  GSH in implanted L1210 tumors relative to controls: 1.2 fold
Mice [5]
  protection against radiation-induced bowel injury: protect the large and small bowel against radiation injury; also recorded: protect mice against irradiation-induced bowel injury
Rat hepatocytes [3]
  [GSH] Rel. to Controls.: about 1.7
  [GSH] ± SE: 61.2 ± 1.52 nmol/10^6 cells
Rat hepatocytes [3]; listed as RibCys (Ia)
  [GSH] Rel. to Controls.: 1.7

## O=C[C@H](O)[C@H](O)[C@H](O)CO [ribose]
Canine heart; 80 mM ribose in normal saline, about 1 ml/min for about 24.0 hours, about 550-700 mg/kg
  decrease in the ATP recovery time: eight-fold decrease
Canine heart; intravenous perfusion
  recovery of ATP levels in heart recovering from ischemia: recovery of ATP levels is enhanced
Canine heart; ribose about 3 g/day for at least 5 days
  ATP levels in dogs subjected to ischemia (heart attack model): effectively restored and maintained ATP levels
Human subjects
  toxicity: essentially non-toxic
Healthy human subjects
  exercise capacity: increase exercise capacity
